Reference: patent publication US6946558B2 (CJ Corp., priority 2001, dated 2005)

Columns and labels:
cyclooxygenase-1 = molecular target: T1, cyclooxygenase-1 (Homo sapiens, UniProt P23219); experiment: Cyclooxygenase-1 inhibition in U-937 cells (PGE2 quantitation after arachidonic acid); assay type: cell-based; details: for Inhibitory effects of cyclooxygenase (COX): COX-1 (U-937): U-937 cells; for inhibition effect against cyclooxygenase-1 compared with standard substance SC-58635: in words, compared with SC-58635
T1 construct: endogenous in cells; host or cells: U-937 (Korean cell line bank)
T1 sequence (P23219 24-599): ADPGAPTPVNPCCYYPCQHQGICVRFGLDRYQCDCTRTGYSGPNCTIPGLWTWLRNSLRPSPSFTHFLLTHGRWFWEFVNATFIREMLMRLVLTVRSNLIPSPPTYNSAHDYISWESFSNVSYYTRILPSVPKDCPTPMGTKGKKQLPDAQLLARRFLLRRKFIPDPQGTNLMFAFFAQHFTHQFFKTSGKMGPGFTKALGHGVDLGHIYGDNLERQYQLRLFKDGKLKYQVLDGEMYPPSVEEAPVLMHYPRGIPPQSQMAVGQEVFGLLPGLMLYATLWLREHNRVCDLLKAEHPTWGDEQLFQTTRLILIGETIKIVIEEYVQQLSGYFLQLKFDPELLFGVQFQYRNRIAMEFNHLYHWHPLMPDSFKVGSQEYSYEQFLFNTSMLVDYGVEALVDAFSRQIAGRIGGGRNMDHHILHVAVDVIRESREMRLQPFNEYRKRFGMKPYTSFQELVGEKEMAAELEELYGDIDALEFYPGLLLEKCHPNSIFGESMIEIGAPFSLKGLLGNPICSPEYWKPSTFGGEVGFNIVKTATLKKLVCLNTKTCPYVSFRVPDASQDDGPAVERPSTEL
Description: (§1) In order to investigate pharmacologically the selective inhibition activity against cyclooxygenase-2 enzyme, the inhibitive effects against cyclooxygenase-1 and cyclooxygenase-2 were measured by two methods as follows.
Then, the pellet was diluted with 1×HBSS (Hank's balanced salt solutin) at the concentration of 1×10^6 cells/ml, and 1 ml of them was transferred into each of 12-well plates, and then dissolved with DMSO. 5 μl of the diluted sample solution and 5 μl of DMSO vehicle were added therein and mixed, and the mixture was cultured at 37° C. in CO2 incubator for 15 minutes. Arachidonic acid as a substrate was dissolved in ethanol to prepare a stock solution with a concentration of 10 mM, followed by diluting with 1×HBSS to prepare the solution of 1 mM. 10 μl of 1 mM Arachidonic acid solution was added to each of the treated wells and the mixture was cultured at 37° C. in CO2 incubator for 30 minutes. The cell solution of each well was collected in the centrifuge tube and centrifuged at 4° C., for 5 minutes at 10,000 rpm. As PGE2 existed in the supernatant separated from collected cell, the concentration of PGE2 was quantitated by using monoclonal kit from Cayman Chemicals, and the concentration of samples and vehicle were compared to estimate the inhibition ratio (%) of each compound against cyclooxygenase-1. Ultimately, the inhibition effect against the cyclooxygenase-1 enzyme was obtained from the result.

cyclooxygenase-2 = molecular target: T2, cyclooxygenase-2 (Mus musculus, UniProt Q05769); experiment: Cyclooxygenase-2 inhibition in Raw 264.7 cells (interferon γ/LPS induced, PGE2 EIA); assay type: cell-based; details: for Inhibitory effects of cyclooxygenase (COX): COX-2 (Raw 264.7): Raw 264.7 cells; for selectivity of cyclooxygenase-2 compared with standard substance: COX-2 versus COX-1, compared with SC-58635
T2 construct: endogenous in cells; host or cells: Raw 264.7 (Korean cell line bank), induced with interferon γ and LPS
T2 sequence (Q05769 18-604): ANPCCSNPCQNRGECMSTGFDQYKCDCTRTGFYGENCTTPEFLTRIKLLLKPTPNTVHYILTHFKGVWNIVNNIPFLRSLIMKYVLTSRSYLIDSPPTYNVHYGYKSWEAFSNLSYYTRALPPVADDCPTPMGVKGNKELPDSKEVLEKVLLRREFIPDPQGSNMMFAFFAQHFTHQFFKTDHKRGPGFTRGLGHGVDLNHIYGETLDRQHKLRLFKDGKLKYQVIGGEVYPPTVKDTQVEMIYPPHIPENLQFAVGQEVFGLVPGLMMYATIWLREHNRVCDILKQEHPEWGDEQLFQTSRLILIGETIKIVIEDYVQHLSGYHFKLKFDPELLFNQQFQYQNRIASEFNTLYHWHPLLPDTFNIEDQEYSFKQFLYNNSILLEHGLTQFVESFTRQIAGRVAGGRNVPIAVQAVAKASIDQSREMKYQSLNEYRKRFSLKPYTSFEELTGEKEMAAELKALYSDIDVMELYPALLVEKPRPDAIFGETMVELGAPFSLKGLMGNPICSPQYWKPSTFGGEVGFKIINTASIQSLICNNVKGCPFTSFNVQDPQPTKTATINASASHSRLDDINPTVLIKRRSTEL
Description: as §1
And then, each samples were replaced with new media and cultured for 30 minutes. In addition, the samples were treated with 100 units/ml of interferon γ and 100 ng/ml of lipopolysaccharide (LPS), and cultured for 18 hours. Then, the media was transferred to other tubes and the PGE 2 was quantitated by using EIA kit from Cayman Chemicals.

| Structure (SMILES) | Inhibitory effects of cyclooxygenase (COX): COX-1 (U-937) (cyclooxygenase-1; 1 μM) [% inhibition] | Inhibitory effects of cyclooxygenase (COX): COX-1 (U-937) (cyclooxygenase-1; 3 μM) [% inhibition] | Inhibitory effects of cyclooxygenase (COX): COX-1 (U-937) (cyclooxygenase-1; 10 μM) [% inhibition] | inhibition effect against cyclooxygenase-1 compared with standard substance SC-58635 (cyclooxygenase-1) | Inhibitory effects of cyclooxygenase (COX): COX-2 (Raw 264.7) (cyclooxygenase-2; 30 nM) [% inhibition] | Inhibitory effects of cyclooxygenase (COX): COX-2 (Raw 264.7) (cyclooxygenase-2; 100 nM) [% inhibition] | Inhibitory effects of cyclooxygenase (COX): COX-2 (Raw 264.7) (cyclooxygenase-2; 300 nM) [% inhibition] | selectivity of cyclooxygenase-2 compared with standard substance (cyclooxygenase-2; in words) | inhibition effect against cyclooxygenase-2 compared with standard substance SC-58635 (cyclooxygenase-2; in words, low concentration, same condition as SC-58635) |
| --- | --- | --- | --- | --- | --- | --- | --- | --- | --- |
| CS(=O)(=O)c1ccc(-c2ncccc2OC2CCCC2)cn1 [Example 2, 3-cyclopentyloxy-6′-methylsulfonyl-2,3′-bipyridinyl] | 12.7 | 14.3 | 21.0 | much lower level than standard substance | 40.3 | 53.2 | 63.5 | better than any other standard substances | more excellent in low concentration than standard substance |
| CC(C)=CCOc1cccnc1-c1ccc(S(C)(=O)=O)nc1 [Example 4, 6′-methylsulfonyl-3-(3-methyl-2-butenyloxy)-2,3′-bipyridinyl] | 12.2 | 15.6 | 17.0 | – | 15.8 | 28.5 | 40.8 | – | – |
| CC(C)Oc1cccnc1-c1ccc(S(C)(=O)=O)nc1 [Example 1, 3-isopropyloxy-6′-methylsulfonyl-2,3′-bipyridinyl] | 0.2 | 7.5 | 11.0 | much lower level than a comparative substance | 10.2 | 14.2 | 15.2 | hardly different | – |
| C[C@@H](CO)COc1cccnc1-c1ccc(S(C)(=O)=O)nc1 [Example 6, (S)-3-(6′-methylsulfonyl-2,3′-bipyridine-3-yloxy)-2-methyl-1-propanol] | 14.3 | 17.2 | 24.5 | much lower level than a comparative substance | 9.3 | 12.0 | 21.0 | hardly different | – |
| C[C@H](CO)COc1cccnc1-c1ccc(S(C)(=O)=O)nc1 [Example 5, (R)-3-(6′-methylsulfonyl-2,3′-bipyridine-3-yloxy)-2-methyl-1-propanol] | 13.5 | 16.2 | 18.9 | much lower level than a comparative substance | 10.3 | 11.01 | 20.1 | hardly different | – |
| CS(=O)(=O)c1ccc(-c2ncccc2OC2CCCCC2)cn1 [Example 3, 3-cyclohexyloxy-6′-methylsulfonyl-2,3′-bipyridinyl] | 11.2 | 12.5 | 14.0 | – | 23.5 | 30.2 | 42.2 | – | – |
